The results in this text go back to ChEMBL document CHEMBL3045026, “Cytotoxic clerodane diterpenes from Glossocarya calcicola” (Phytochemistry, 2005).

For assay [1], the system named is HepG2. Put plainly: Cytotoxicity against Homo sapiens (human) HepG2 cells. In kind it is functional, cell-based.
A short description of assay [2]: Cytotoxicity against Drosophila melanogaster D.mel-2 cells. Format: functional, cell-based.

Structures are written as SMILES. Converted amounts (≈) assume the structure as drawn.

In the case of `C=C1CC[C@@H](OC(=O)C(C)CC)[C@H]2[C@@]1(C)[C@@H](O)C(=O)C(=C)[C@]2(C)C[C@@H](OC(=O)/C(C)=C/C)[C@]1(O)COC(=O)C1` (relative stereo), the IC50 in assay [1] is 2.1 µg/mL (≈ 3.84 µM); in assay [2] it was 8.3 µg/mL (≈ 15.2 µM).

In the case of `C=C1CC[C@@H](OC(=O)C(C)C)[C@H]2[C@@]1(C)[C@@H](O)C(=O)C(=C)[C@]2(C)C[C@@H](OC(=O)/C(C)=C/C)[C@]1(O)COC(=O)C1` (relative stereo), the IC50 came to 2.06 µg/mL (≈ 3.87 µM) in assay [1] and 9.04 µg/mL (≈ 17 µM) in assay [2].
